Measurements: US11744246B2, “Preparation of mammalian oocyte for fertilization via a soluble human PH20 hyaluronidase polypeptide” (SYNGENTA PARTICIPATIONS AG, priority 2017, dated 2023)

What was measured:
Type in all cases: cell-based
[1] = system: Glomerella lagenarium (Colletotrichum lagenarium); assay: Glomerella Lagenarium (Colletotrichum Lagenarium)/Liquid Culture (Anthracnose); settings: Colletotrichum orbiculare, liquid culture, growth inhibition photometrically 3-4 days after application, compared to untreated control
[2] = system: Monographella nivalis (Microdochium nivale); assay: Monographella nivalis (Microdochium nivale)/Liquid Culture (Foot Rot Cereals); settings: 96 h, liquid culture, growth inhibition photometrically 4-5 days after application, compared to untreated control
Fusarium culmorum = assay: microbe, parasite or virus in culture; settings: 72 h, read-out: control of Fusarium culmorum
[3] = system: Botryotinia fuckeliana (Botrytis cinerea); assay: Botryotinia fuckeliana (Botrytis cinerea)/Liquid Culture (Gray Mould); settings: 72 h, liquid culture, growth inhibition photometrically 3-4 days after application, compared to untreated control
[4] = system: Magnaporthe grisea (Pyricularia oryzae); assay: microbe, parasite or virus in culture; settings: read-out: control of Magnaporthe grisea

Measured: inhibition of growth at 20 ppm

CC(COc1ccccc1F)(CC(F)(F)F)C(=O)Nc1cnc2c(F)cccc2c1 (stereo not shown) [E.01, 4,4,4-trifluoro-2-[(2-fluorophenoxy)methyl]-N-(8-fluoro-3-quinolyl)-2-methyl-butanamide]
≥ 80%: all assays above

CC(COc1cccc(F)c1)(CC(F)(F)F)C(=O)Nc1cnc2c(F)cccc2c1 (stereo not shown) [E.02, 4,4,4-trifluoro-2-[(3-fluorophenoxy)methyl]-N-(8-fluoro-3-quinolyl)-2-methyl-butanamide]
≥ 80%: all assays above

CC(COc1ccc(F)cc1)(CC(F)(F)F)C(=O)Nc1cnc2c(F)cccc2c1 (stereo not shown) [E.03, 4,4,4-trifluoro-2-[(4-fluorophenoxy)methyl]-N-(8-fluoro-3-quinolyl)-2-methyl-butanamide]
≥ 80%: all assays above

CC(C)(C)COCC(C)(CC(F)(F)F)C(=O)Nc1cnc2c(F)cccc2c1 (stereo not shown) [E.04, 2-(2,2-dimethylpropoxymethyl)-4,4,4-trifluoro-N-(8-fluoro-3-quinolyl)-2-methyl-butanamide]
≥ 80%: all assays above

CC(COc1ccc(Cl)cc1)(CC(F)(F)F)C(=O)Nc1cnc2c(F)cccc2c1 (stereo not shown) [E.05, 2-[(4-chlorophenoxy)methyl]-4,4,4-trifluoro-N-(8-fluoro-3-quinolyl)-2-methyl-butanamide]
≥ 80%: all assays above

CC1(OCC(C)(CC(F)(F)F)C(=O)Nc2cnc3c(F)cccc3c2)CCCC1 (stereo not shown) [E.06, 4,4,4-trifluoro-N-(8-fluoro-3-quinolyl)-2-methyl-2-[(1-methylcyclopentoxy)meth-yl]butanamide]
≥ 80%: all assays above

CC(COC1CCC1)(CC(F)(F)F)C(=O)Nc1cnc2c(F)cccc2c1 (stereo not shown) [E.07, 2-(cyclobutoxymethyl)-4,4,4-trifluoro-N-(8-fluoro-3-quinolyl)-2-methyl-butanamide]
≥ 80%: all assays above

CC(COC1CCCCC1)(CC(F)(F)F)C(=O)Nc1cnc2c(F)cccc2c1 (stereo not shown) [E.08, 2-(cyclohexoxymethyl)-4,4,4-trifluoro-N-(8-fluoro-3-quinolyl)-2-methyl-butanamide]
≥ 80%: all assays above
